Measured values taken from publication PMC7933091 (2021).

Tested on: SC-34 (DNA, aptamer) ACCTTAAGTGGGGTTCGGGTGGAGTTTATGGGGT
Assay: ITC, single-site model
Conditions: 20 mM NaCl, 0.5 mM MgCl2; 10 mM Tris, pH 7.4, 23 °C; same value in low-salt PBS

## CCC[C@H](C(=O)c1ccc2c(c1)OCO2)N1CCCC1
  KD: ~ 300 nM
